{
  "source": "paper PMC3828927",
  "about": "“Heterotropic Effect of β-lactam Antibiotics on Antioxidant Property of Haptoglobin (2-2)-Hemoglobin Complex” (Iranian Journal of Pharmaceutical Research : IJPR, 2011)",
  "target": "T1, Hp (2-2)-Hb complex (Homo sapiens, UniProt P68871+P69905)",
  "T1 construct": "gene HBA1; with Haptoglobin",
  "T1 sequence (P69905 2-142)": "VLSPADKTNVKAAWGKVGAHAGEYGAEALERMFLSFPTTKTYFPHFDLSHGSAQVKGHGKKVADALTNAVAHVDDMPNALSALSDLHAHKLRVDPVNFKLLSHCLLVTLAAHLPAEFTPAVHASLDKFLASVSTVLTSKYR",
  "T1 sequence (P68871 2-147)": "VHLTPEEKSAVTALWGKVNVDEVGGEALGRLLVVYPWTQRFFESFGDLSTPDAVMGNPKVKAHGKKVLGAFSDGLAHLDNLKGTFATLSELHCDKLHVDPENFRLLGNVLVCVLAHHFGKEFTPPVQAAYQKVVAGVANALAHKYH",
  "T1 sequence (P00738 19-160 partner)": "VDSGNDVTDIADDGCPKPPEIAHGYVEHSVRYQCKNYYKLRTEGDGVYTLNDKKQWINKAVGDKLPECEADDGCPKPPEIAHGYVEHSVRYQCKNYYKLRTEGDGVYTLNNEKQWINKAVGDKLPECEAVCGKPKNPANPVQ",
  "T1 sequence (P00738 162-406 partner)": "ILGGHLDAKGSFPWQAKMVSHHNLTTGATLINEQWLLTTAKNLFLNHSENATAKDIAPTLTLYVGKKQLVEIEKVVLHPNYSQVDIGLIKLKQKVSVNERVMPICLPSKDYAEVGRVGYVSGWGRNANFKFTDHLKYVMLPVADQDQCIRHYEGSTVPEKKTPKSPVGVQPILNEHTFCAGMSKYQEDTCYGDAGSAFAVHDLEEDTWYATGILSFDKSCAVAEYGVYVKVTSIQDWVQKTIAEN",
  "experiment": "guaiacol peroxidase assay, A470, clearance plot",
  "type": "biochemical",
  "details": "activator (heterotropic); binding site not shown; varied H2O2, 0.03 M guaiacol, 64 nM complex, 50 mM phosphate pH 7.5, 37 C",
  "data": [
    {"molecule": "CC1(C)S[C@@H]2[C@H](NC(=O)[C@H](N)c3ccccc3)C(=O)N2[C@H]1C(=O)O", "note": "[ampicillin]", "values": [
      {"measurement": "% increase in peroxidase activity (CLmax) at 14 μg/mL", "value": "~ 16%"}
    ]}
  ]
}
